Laboratory results as given in patent US4895863A, “Novel imidazo[2,1-B]benzothiazoles” (Roussel Uclaf, priority 1987, dated 1990).

biological target: benzodiazepine receptors; assay: Affinity for benzodiazepine receptors: inhibition of specific binding of 3H-labelled flunitrazepam in rat rear brain membranes; set-up: species or system rats; details: inhibition of 50% of specific binding of 0.6×10^-9 mol 3H-flunitrazepam; membranes from rear portion of rat brain
Experimental: The affinity of the active ingredients for benzodiazepine receptors was measured using a radioactively labelled (^3 H) compound flunitrazepam in a modified version of the method of Squires et al [Nature, (1977), Vol. 266, p. 732]. The values given in Table 2 below are the concentration (mol×10^-9) of the compound under test which inhibited 50% of the specific binding of 0.6×10^-9 mol of ^3 H-labelled flunitrazepam in preparations of membrances from the rear portion of the brain in rats (IC50 values).

| Compound | IC50 [nM] |
| --- | --- |
| O=C(c1cn2c(n1)sc1cc(OCc3ccccc3)ccc12)C1CC1 [Example 4, (7-benzyloxy-imidazo[2,1-b]-benzothiazol-2-yl) cyclopropyl-methanone] | 3.2 |
| O=C(c1cn2c(n1)sc1cc3c(cc12)OCO3)C1CC1 [Example 5] | 158 |
| O=C(c1cn2c3c(sc2n1)CCCC3)C1CC1 [Example 6, (5,6,7,8-tetrahydro-imidazo[2,1-b]benzothiazol-2-yl) cyclopropyl-methanone] | 79 |
| Cc1cc2sc3nc(C(=O)C4CC4)cn3c2cc1C [Example 8] | 60 |

Other lines, results leading:

| IC50 [nM] | Compound |
| --- | --- |
| 2.5 | COc1ccc2c(c1)sc1nc(C(=O)C3CC3)cn12 [Example 1, (7-Methoxy-imidazo[2,1-b]benzothiazol-2-yl)-cyclopropylmethanone] |
| 20 | O=C(c1cn2c(n1)sc1ccccc12)C1CC1 [Example 2] |
| 6.3 | CC(C)Oc1ccc2c(c1)sc1nc(C(=O)C3CC3)cn12 [Example 7, (7-isopropoxy-imidazo[2,1-b]benzothiazol-2-yl) cyclopropyl-methanone] |
